Experimental data from US11519859B2, “Rhodol-based thallium sensors for high-throughput screening of potassium channels” (priority 2018, dated 2022).
Several values for one entry are separate records, joined by “and”; a condition that tells them apart may be missing. Equal values may be shown once.

What was measured:
[1] = Determination of photochemical properties of saponified dyes; assay type: physicochemical; details: for λem (fluorescence emission maximum) / λmax (absorption maximum) / ε (molar absorptivity): after saponification, 150 mM KCl, 10 mM HEPES, 50 μM EDTA, pH = 7.22; for ε (molar absorptivity): at λmax; for fluorescence of saponified dye (in words): reason why spectra were not recorded
Description: Evaluation of the photochemical properties of the active Thallium sensing species was accomplished by saponifying 10 μL of each pro-dye stock solution by incubating with 90 μL of 0.1 M KOH for 20 min at 37° C. with the exception of 8b which was treated with 1% NH4OH for 1 h at 37° C. The saponified compounds were diluted into 150 mM KCl buffered with 10 mM HEPES, pH=7.22 with 50 μM of EDTA. All photochemical measurements were taken in this buffer. Absorbance and fluorescence emission spectra were recorded on a Molecular Devices Spectromax M5 using polystyrene cuvettes with path length=1 cm at 23° C. Molar absorptivities are reported for λmax. The emission wavelengths monitored for recording excitation spectra, the excitation wavelengths used for recording emission spectra, and the corresponding emission cutoff filters used are listed in Table 2 below, and representative excitation and emission spectra are shown in FIG. 7.
To determine the in vitro photochemical properties of the active Tl^+ sensing species, 8a-m were treated with base to remove the acetoxymethyl esters and aryl acetate and then diluted into 10 mM HEPES buffered 150 mM KCl with 50 μM EDTA at pH=7.22.

[2] = system: HEK-293 cells co-expressing GIRK1 and GIRK2; details: dye loading 1 h, 1 mM Tl^+ stimulus; for on/off (Tl^+ flux assay), maximum fold increase in fluorescence after Tl^+ addition: 10 μM ML297, 2 mM Allura Red AC, n = 6
Description: HEK-293 cells co-expressing GIRK1 and GIRK2 were cultured to 80% confluence in a T75 flask (Techno Plastic Products, Trasadingen, CH) at 37° C. and 5% CO2 in medium consisting of Minimal Essential Medium (Cellgro, Manassas, Va.) containing 1× Glutagro (Cellgro, Manassas, Va.) and 10% (v/v) heat-inactivated fetal bovine serum (Life Technologies, Carlsbad, Calif.). The cells were dislodged by treatment with TrypLE (Gibco/Life Technologies, Carlsbad, Calif.), diluted in medium, and plated on clear bottomed, black-walled, amine coated 384 well plates (BD Biosciences, Billerica, Mass.) at a density ˜20,000 cells per well. The plated cells were incubated overnight at 37° C. and 5% CO2 and used for the assay the next day.
Dye loading solutions of Thallos were prepared by dissolving a 25 μg aliquot in 30 μL of 6.7% Pluoronic F-127 (w/v) in DMSO and diluting the resulting solution 1:1000 into assay buffer. Culture medium was removed and replaced with 20 μL of dye loading buffer and incubated in the dark at room temperature for 1 h.
Assay—Assays were conducted on a WaveFront Biosciences Panoptic 1 or 2 (WaveFront Biosciences, Franklin, Tenn.) as indicated. Dye loading solutions were removed and replaced with assay buffer immediately before imaging unless otherwise noted. 10 s following commencement of plate imaging, 20 μL of compound at 2.5× concentration in assay buffer was added and incubated for 120 s at which point 10 μL of Tl^+ at 5× concentration in stimulus buffer (125 mM NaHCO3, 1.8 mM CaSO4, 1 mM MgSO4, 5 mM glucose, 10 mM HEPES, pH 7.4, and T12SO4), and images taken for the following 120 s.
1 mM of T12SO4 (final concentration) was used for stimulus. Assay and stimulus buffers were supplemented with 2 mM of Allura Red AC. […] On/off ratios were calculated by dividing the fluorescence intensity after saturation following Tl^+ addition by the fluorescence intensity immediately after compound addition (n=6).

[3] = system: HEK-293 cells co-expressing GIRK1 and GIRK2; experiment: Fold increase in dye fluorescence in Tl+ flux assay with ML297 concentration series; assay type: cell-based
Description: ML297 concentration response curves—In general, all concentration-response data were collected on a WaveFront Biosciences Panoptic 2. Thallos treated cells were imaged using 482/35 nm excitation and 536/40 nm emission filters. 8c treated cells were imaged using 529/24 nm excitation and 565/24 nm emission filters (unless otherwise noted). FluxOR Red treated cells were imaged using 544/24 nm excitation and 593/40 nm emission filters (all filters purchased from Semrock, Rochester, N.Y.). FluxOR Red reagent was prepared according to the manufacturer's procedure. 5 μM of 8c was used for dye loading for all conditions.
FluxOR Red procedure with background suppressor. The manufacturer's procedure was followed with the exceptions that the dye loading solution was replaced with 20 μL of assay buffer, solutions of ML297 were prepared in assay buffer plus background suppressor, 20 μL of compound solution was added and 10 μL stimulus buffer (basal) was added according to the general assay protocol described above.
FluxOR Red procedure without background suppressor. The FluxOR Red manufacturer's procedure was followed except the background suppressor was replaced by H2O in all buffers.
Bicarbonate buffer with Allura Red AC. […]
The fluorescence intensity values of the first 6 time points for each well were averaged and the fluorescence intensity for all time points in the well was divided by this value to provide F/Fo for each time point. The average F/Fo of the vehicle control was then subtracted from each curve and the normalized, control subtracted fluorescence intensity value was sampled at a time point several seconds after Tl^+ addition. […] Fold increases in fluorescence reported in the main paper were calculated by averaging F/Fo between 100 and 110 s after Tl^+ addition. […]
The performance of 8c was evaluated in a Tl^+ flux assay to generate a concentration response curve (CRC) of the GIRK activator ML297. […] Normalized, control subtracted fluorescence intensity values were sampled along the curves following Tl^+ addition at each concentration and a CRC was fit using GraphPad Prism (FIG. 3B).

[4] = Compound storage as DMSO stock solutions; assay type: physicochemical; details: 10 mM stock solutions in DMSO at −20° C.
Description: Compounds 8a-m were dissolved in DMSO and stored as 10 mM stock solutions at −20° C. […] To prevent this, dry aliquots of 8a were prepared and dissolved in DMSO immediately before use.

| Compound | λem (fluorescence emission maximum) [1] | λmax (absorption maximum) [1] | ε (molar absorptivity) [1] | on/off (Tl^+ flux assay), maximum fold increase in fluorescence after Tl^+ addition [2] | fold increase in fluorescence at the highest ML297 concentration ([3]; FluxOR Red kit procedure with background suppressor, 10 μM ML297, F/Fo 100-110 s after Tl^+) | fold increase in fluorescence at the highest ML297 concentration ([3]; FluxOR Red kit procedure without background suppressor) | fold increase in fluorescence ([3]; bicarbonate stimulus buffer, 500 μM Tl^+, no-wash, 1 mM Allura Red AC) | stability on storage [4] | fluorescence of saponified dye (in words) [1] | fluorescence and response to Tl^+ in cells (in words) [2] |
| --- | --- | --- | --- | --- | --- | --- | --- | --- | --- | --- |
| COc1cc(NC(=O)c2ccc3c(c2)C(=O)OC32c3ccc(NC4CCCCC4)cc3Oc3cc(OC(C)=O)ccc32)ccc1N(CC(=O)OCOC(C)=O)CC(=O)OCOC(C)=O (stereo not drawn) [Compound 8g, bis(acetoxymethyl) 2,2′-((4-(3′-acetoxy-6′-(cyclohexylamino)-3-oxo-3H-spiro[isobenzofuran-1,9′-xanthen]-5-ylcarboxamido)-2-methoxyphenyl)azanediyl)diacetate] | 535 nm | 514 nm | 57000 M⁻¹ cm⁻¹ | 4.26 ± 0.07 fold |  |  |  |  |  |  |
| COc1cc(NC(=O)c2ccc3c(c2)C(=O)OC32c3ccc(OC(C)=O)cc3Oc3cc(N4CCC4)ccc32)ccc1N(CC(=O)OCOC(C)=O)CC(=O)OCOC(C)=O (stereo not drawn) [Compound 8j, bis(acetoxymethyl) 2,2′-((4-(3′-acetoxy-6′-(azetidin-1-yl)-3-oxo-3H-spiro[isobenzofuran-1,9′-xanthen]-5-ylcarboxamido)-2-methoxyphenyl)azanediyl)diacetate] | 550 nm | 522 nm | 56000 M⁻¹ cm⁻¹ | 3.92 ± 0.13 fold |  |  |  |  |  |  |
| COc1cc(NC(=O)c2ccc3c(c2)C(=O)OC32c3ccc(OC(C)=O)cc3Oc3cc(N(C)C)ccc32)ccc1N(CC(=O)OCOC(C)=O)CC(=O)OCOC(C)=O (stereo not drawn) [Compound 8c, bis(acetoxymethyl) 2,2′-((4-(3′-acetoxy-6′-(dimethylamino)-3-oxo-3H-spiro[isobenzofuran-1,9′-xanthene]-5-carboxamido)-2-methoxyphenyl)azanediyl)diacetate] | 551 nm | 521 nm | 56000 M⁻¹ cm⁻¹ | 4.21 fold and 4.21 ± 0.04 fold | 3.09±0.004 fold | 2.87±0.004 fold | 3.40±0.009 fold |  |  |  |
| COc1cc(NC(=O)c2ccc3c(c2)C(=O)OC32c3ccc(OC(C)=O)cc3Oc3cc(N4CCCCC4)ccc32)ccc1N(CC(=O)OCOC(C)=O)CC(=O)OCOC(C)=O (stereo not drawn) [Compound 8m, bis(acetoxymethyl) 2,2′-((4-(3′-acetoxy-3-oxo-6′-(piperidin-1-yl)-3H-spiro[isobenzofuran-1,9′-xanthen]-5-ylcarboxamido)-2-methoxyphenyl)azanediyl)diacetate] | 557 nm | 526 nm | 48000 M⁻¹ cm⁻¹ | 3.09 ± 0.04 fold |  |  |  |  |  |  |
| COc1cc(NC(=O)c2ccc3c(c2)C(=O)OC32c3ccc(N)cc3Oc3cc(OC(C)=O)ccc32)ccc1N(CC(=O)OCOC(C)=O)CC(=O)OCOC(C)=O (stereo not drawn) [Compound 8a, bis(acetoxymethyl) 2,2′-((4-(3′-acetoxy-6′-amino-3-oxo-3H-spiro[isobenzofuran-1,9′-xanthen]-5-ylcarboxamido)-2-methoxyphenyl)azanediyl)diacetate] | 520 nm | 496 nm | 57000 M⁻¹ cm⁻¹ | 3.02 ± 0.08 fold |  |  |  | appeared to undergo transacetylation |  |  |
| COc1cc(NC(=O)c2ccc3c(c2)C(=O)OC32c3ccc(Nc4ccccc4)cc3Oc3cc(OC(C)=O)ccc32)ccc1N(CC(=O)OCOC(C)=O)CC(=O)OCOC(C)=O (stereo not drawn) [Compound 8i, bis(acetoxymethyl) 2,2′-((4-(3′-acetoxy-3-oxo-6′-(phenylamino)-3H-spiro[isobenzofuran-1,9′-xanthen]-5-ylcarboxamido)-2-methoxyphenyl)azanediyl)diacetate] |  | 517 nm | 52000 M⁻¹ cm⁻¹ | 1.07 ± 0.01 fold |  |  |  |  | very weak fluorescence | minor increase in fluorescence |
| COc1cc(NC(=O)c2ccc3c(c2)C(=O)OC32c3ccc(NC(C)=O)cc3Oc3cc(OC(C)=O)ccc32)ccc1N(CC(=O)OCOC(C)=O)CC(=O)OCOC(C)=O (stereo not drawn) [Compound 8b, bis(acetoxymethyl) 2,2′-((4-(3′-acetamido-6′-acetoxy-3-oxo-3H-spiro[isobenzofuran-1,9′-xanthen]-5-ylcarboxamido)-2-methoxyphenyl)azanediyl)diacetate] |  | 463 nm | 24000 M⁻¹ cm⁻¹ |  |  |  |  |  | very weak fluorescence | Fluorescence was not detected |
